What all share (assay): NCI tumour cell line growth inhibition, 48 h
Assay [1] relates to SNB-75.
The test system of assay [2] is SF-295.
Assay [3] concerns OVCAR-5.
Assay [4] has as its system SF-539.
Assay [5] has as its system IGROV-1.
The test system of assay [6] is MCF7.
In assay [7] the test system is SK-MEL-28.
For assay [8], the system named is UACC-62.
Assay [9] concerns NCI-H460.
Assay [10] relates to COLO 205.
The subject of assay [11] is NCI-H522.
In assay [12] the test system is UO-31.
Assay [13] deals with K562.
The subject of assay [14] is ACHN.
The test system of assay [15] is SR.
Assay [16] has as its system 786-0.

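A five-concentration, 48-hour dose response in 96-well plates underlies each endpoint, interpolated linearly between surrounding concentrations. Here, GI50 denotes the concentration required for 50% inhibition of growth.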 Calls of active or inactive are those of the source. No stated cut-off is given here; in the data, active = GI50 up to about 1.1 µM and inactive = higher.

Consider `CSCCC(NC(=O)C(Cc1ccccc1)NC(=O)CNC(=O)CNC(=O)C(N)Cc1ccc(O)cc1)C(=O)O` (stereo not drawn), for which the GI50 in [1] was > 90.2 µM (inactive); in assay [2], > 100 µM (inactive); in assay [3] it was > 55.5 µM (inactive); in assay [4], > 100 µM (inactive); in [5], > 100 µM (inactive); in assay [6], > 100 µM (inactive). In addition, the GI50 in assay [7], in [8], in [9], in assay [10], in assay [11] and in assay [12] was > 100 µM (inactive) throughout. Also, the GI50 in [13] is > 100 µM (inactive).
Consider `COc1ccc(OC(C)C(=O)O)c2c(=O)ccccc12` (stereo not drawn), for which the GI50 in assay [14], in [1], in [2], in assay [3], in assay [15] and in assay [4] was > 100 µM (inactive) in each case. Moreover, the GI50 in [5], in assay [7], in assay [8], in assay [9], in assay [10] and in [11] was > 100 µM (inactive) in each case. Also, the GI50 in assay [12], in [16] and in [13] was > 100 µM (inactive) throughout.
Take `CCNC(=O)CCN(C(=O)O)S(=O)(=O)c1ccc(NC(=O)c2ccccc2)cc1`: the GI50 in assay [14], in assay [1], in assay [2], in assay [3], in [15] and in [4] was > 100 µM (inactive) each time. For the same compound, the GI50 in [5], in [7], in assay [8], in [9], in assay [10] and in [11] was > 100 µM (inactive) throughout. Moreover, the GI50 in [12] was > 100 µM (inactive); in assay [16] it was 10.3 µM (inactive); in assay [13] it was 86.3 µM (inactive).
As to `CCCNC1=C(C)C(=O)C2=C(C1=O)[C@H](COC(N)=O)[C@]1(OC)[C@@H]3N[C@@H]3CN21`, the GI50 in assay [1] is 1.67 µM (inactive); in assay [2] it was 2.39 µM (inactive); in [3], 13.7 µM (inactive); in assay [4], 4.39 µM (inactive); in [5] it was 5.04 µM (inactive); in assay [6], 0.0422 µM (active). In addition, the GI50 in [7] was 19.8 µM (inactive); in assay [8] it was 0.472 µM (active); in [9] it was 0.0661 µM (active); in assay [10], 3.94 µM (inactive); in assay [11] it was 2.88 µM (inactive); in assay [12], 20.3 µM (inactive). Further, the GI50 in assay [13] is 12.1 µM (inactive).
With `N#Cc1ccc(/C=C(/C(=O)c2ccccc2)c2ccccc2)cc1`, the GI50 was 15.5 µM (inactive) in assay [14]; 27.2 µM (inactive) in assay [1]; 9.55 µM (inactive) in [2]; 18 µM (inactive) in assay [3]; 2.62 µM (inactive) in [15]; 21.2 µM (inactive) in assay [4]. Further, the GI50 is 23.7 µM (inactive) in assay [5]; 15.8 µM (inactive) in assay [7]; 7.48 µM (inactive) in assay [8]; 16.5 µM (inactive) in assay [9]; 19.6 µM (inactive) in [10]; 8.41 µM (inactive) in [11]. For the same compound, the GI50 was 14.2 µM (inactive) in [12], 10.9 µM (inactive) in assay [16] and 2.6 µM (inactive) in assay [13].
On to `COc1cccc(NC(=O)CC(=O)N2N=C(N(CCC#N)c3ccccc3C)CC2c2ccccc2)c1` (stereo not drawn), for which the GI50 in [14], in assay [1], in assay [2], in [3], in [15] and in assay [4] was > 100 µM (inactive) throughout. For the same compound, the GI50 in [5], in [7], in assay [8], in assay [9], in [10] and in assay [11] was > 100 µM (inactive) throughout. Moreover, the GI50 in assay [12], in [16] and in [13] was > 100 µM (inactive) throughout.
With `O=C(c1cccs1)N(C(=S)N1CCN(c2ccccc2)CC1)C1CCCCC1`, the GI50 in [14], in assay [1], in [2], in assay [3], in assay [15] and in [4] was > 100 µM (inactive) each time. For the same compound, the GI50 in assay [5], in assay [7], in assay [8], in [9], in assay [10] and in assay [11] was > 100 µM (inactive) each time. Also, the GI50 in assay [12], in [16] and in [13] was > 100 µM (inactive) in each case.
In the case of `COc1ccc(-c2cc(O)c3cc4c(cc3n2)OCO4)c(OC)c1OC`, the GI50 in assay [14] is 76.2 µM (inactive); in assay [1] it was 27.7 µM (inactive); in assay [2], 76.6 µM (inactive); in assay [15], 24.4 µM (inactive); in assay [4] it was > 100 µM (inactive); in [5] it was > 100 µM (inactive). Moreover, the GI50 is 96.6 µM (inactive) in assay [7]; 47.6 µM (inactive) in assay [8]; 33.6 µM (inactive) in assay [9]; 53.1 µM (inactive) in assay [10]; 96.2 µM (inactive) in assay [11]; > 100 µM (inactive) in assay [12]. Besides, the GI50 in assay [16] is > 100 µM (inactive); in [13], 43.9 µM (inactive).
As to `OCC(O)COc1ccc(F)cc1` (stereo not drawn), the GI50 in [14], in [1], in [2], in assay [3], in assay [15] and in assay [4] was > 100 µM (inactive) each time. The GI50 in assay [5], in assay [7], in [8], in [9], in assay [10] and in [11] was > 100 µM (inactive) in each case. The GI50 in assay [12], in assay [16] and in assay [13] was > 100 µM (inactive) each time.
For the compound `Cc1ccc(C(C)(C)C[P+](C)(c2ccccc2)c2ccccc2)cc1`, the GI50 in [1] was 8.18 µM (inactive); in assay [2], 26.7 µM (inactive); in assay [3] it was 18.1 µM (inactive); in assay [4], 28 µM (inactive); in assay [5] it was 5.28 µM (inactive); in assay [6] it was 7.93 µM (inactive). The GI50 in [7] was 8.51 µM (inactive); in [8] it was 5.38 µM (inactive); in assay [9] it was 14 µM (inactive); in assay [10], 4.42 µM (inactive); in assay [11], 3.4 µM (inactive); in assay [12], 20.8 µM (inactive). The GI50 in assay [13] was 5 µM (inactive).
With `O=C1c2ccccc2C(=O)c2c1ccc1c2N=C(c2ccc(Br)cc2)CC(c2cccc3ccccc23)N1` (stereo not drawn), the GI50 was > 100 µM (inactive) in assay [14]; 94.6 µM (inactive) in [1]; > 100 µM (inactive) in [2]; > 100 µM (inactive) in assay [3]; 57.7 µM (inactive) in [15]; > 100 µM (inactive) in assay [4]. Further, the GI50 in assay [5], in [7], in assay [8], in assay [9], in assay [10] and in assay [11] was > 100 µM (inactive) each time. Moreover, the GI50 in assay [12], in assay [16] and in [13] was > 100 µM (inactive) in each case.
For `CC(=O)O[C@H]1CC[C@@]2(C)C(=CC[C@H]3C4=CC=C(C(C)=O)[C@@]4(C)CCC32)C1` (stereo partly drawn), the GI50 was 34.1 µM (inactive) in [14]; 31.1 µM (inactive) in assay [1]; 41 µM (inactive) in [2]; 27.9 µM (inactive) in assay [3]; 19.6 µM (inactive) in assay [15]; 47 µM (inactive) in assay [4]. Moreover, the GI50 in [5] is 56.2 µM (inactive); in assay [7], 31 µM (inactive); in assay [8], 18.8 µM (inactive); in assay [9], 43.7 µM (inactive); in assay [10] it was 13.4 µM (inactive); in assay [11], 20 µM (inactive). Besides, the GI50 was 43.7 µM (inactive) in assay [12] and 35.5 µM (inactive) in assay [16].
With `CCCC(O)C(NC(=O)CCl)C(=O)O` (stereo not drawn), the GI50 in [1], in assay [2], in [3], in assay [4], in [5] and in [6] was > 100 µM (inactive) in each case. The GI50 in [7], in assay [8], in assay [9], in assay [10], in [11] and in assay [12] was > 100 µM (inactive) throughout. Further, the GI50 in assay [13] is > 100 µM (inactive).
As to `CC(=O)Nc1cccc(/N=N/N(C)C)c1`, the GI50 in assay [1] was > 49.3 µM (inactive); in assay [2], > 63.8 µM (inactive); in assay [3], > 100 µM (inactive); in [4] it was > 100 µM (inactive); in [5], > 100 µM (inactive); in assay [6], > 100 µM (inactive). The GI50 in [7] is > 95.3 µM (inactive); in [8], > 100 µM (inactive); in assay [9] it was > 100 µM (inactive); in assay [10] it was > 100 µM (inactive); in assay [11] it was > 100 µM (inactive); in assay [12] it was > 100 µM (inactive). In addition, in [13], the GI50 is 98.4 µM (inactive).
